“Also recorded” adds a separate entry of the source.

The target of one series is T1, TLR7 (Mus musculus, UniProt P58681).
T1 construct: endogenous in cells; host or cells: primary splenocytes of BALB/c mice
T1 sequence (P58681 27-1050): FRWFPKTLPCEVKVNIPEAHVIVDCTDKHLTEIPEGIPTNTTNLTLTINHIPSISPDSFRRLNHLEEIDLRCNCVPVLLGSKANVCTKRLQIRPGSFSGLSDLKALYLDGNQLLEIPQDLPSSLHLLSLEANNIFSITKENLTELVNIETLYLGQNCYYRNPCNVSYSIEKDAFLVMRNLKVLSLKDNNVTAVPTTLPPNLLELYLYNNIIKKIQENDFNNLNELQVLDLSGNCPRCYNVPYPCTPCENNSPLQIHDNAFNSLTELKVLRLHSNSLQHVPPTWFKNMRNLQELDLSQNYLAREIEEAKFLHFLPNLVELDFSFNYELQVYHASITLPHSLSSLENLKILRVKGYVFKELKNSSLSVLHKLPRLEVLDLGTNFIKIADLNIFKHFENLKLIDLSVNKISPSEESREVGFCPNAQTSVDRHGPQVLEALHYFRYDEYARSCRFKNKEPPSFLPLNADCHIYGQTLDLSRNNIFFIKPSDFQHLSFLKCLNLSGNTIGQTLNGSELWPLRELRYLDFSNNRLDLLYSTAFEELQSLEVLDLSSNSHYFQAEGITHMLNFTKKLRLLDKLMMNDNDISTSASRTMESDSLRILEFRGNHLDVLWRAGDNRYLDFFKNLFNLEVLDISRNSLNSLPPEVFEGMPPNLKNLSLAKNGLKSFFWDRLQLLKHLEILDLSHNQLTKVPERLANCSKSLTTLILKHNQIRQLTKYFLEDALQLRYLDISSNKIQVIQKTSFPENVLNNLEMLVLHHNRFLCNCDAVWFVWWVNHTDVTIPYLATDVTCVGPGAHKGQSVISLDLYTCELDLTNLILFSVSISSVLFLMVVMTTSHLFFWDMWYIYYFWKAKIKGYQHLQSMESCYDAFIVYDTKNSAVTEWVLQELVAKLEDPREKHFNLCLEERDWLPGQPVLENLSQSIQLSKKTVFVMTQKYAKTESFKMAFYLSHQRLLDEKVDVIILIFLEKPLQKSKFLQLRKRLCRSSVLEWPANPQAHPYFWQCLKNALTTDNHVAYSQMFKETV
The experiment in a line: Tape stripping in TLR9-deficient mice. The class given is in vivo. To be noted: 100 μg sc, 24 hr. How it is done: (A) TLR7−/− (black histograms) and age matched WT C57/BL6 mice (grey histograms) were either left untreated (naive) or tape stripped to provoke inflammation. 24 hr later, skin biopsies were isolated and the levels of proinflammatory genes evaluated by Taqman. n=10 mice is shown (Mean±SEM); * p≦0.05. B) TLR9−/− were tape stripped (black histograms) or tape stripped immediately after treatment (s.c) with the dual TLR7 and TLR9 inhibitor IRS 954 (100 μg; sc) (dashed histograms). Age matched WT C57/BL6 mice were either left untreated (naïve; white histograms) or tape stripped (grey histograms). 24 hr later, skin biopsies were isolated and the levels of proinflammatory genes evaluated by Taqman. n=10 mice is shown (Mean±SEM); * p≦0.05.
C57BL/6 and 129 mice were purchased from Charles River Laboratories. (NZBxNZW)F1 female mice were purchased from Jackson Laboratories and used at 18-22 weeks of age. MyD88/KO and TLR9/KO mouse colonies were maintained at Simonsen Laboratories and used with age matched C57BL/6 wild type controls at 8-12 weeks of age. Tape stripping was performed after shaving the dorsal area (3×3 cm) using 10 strokes with duct tape. IRS was administered just before tape stripping SC at a distant site. […] Percentage of area with open lesions in (NZBxNZW)F1 and normal mice was evaluated with Nikon software NIS-elements.

For the next series, the target named is T2, TLR9 (Mus musculus, UniProt Q9EQU3).
T2 construct: endogenous in cells; host or cells: 129 mice, whole animal (serum IFN-alpha and IL-6)
T2 sequence (Q9EQU3 26-1032): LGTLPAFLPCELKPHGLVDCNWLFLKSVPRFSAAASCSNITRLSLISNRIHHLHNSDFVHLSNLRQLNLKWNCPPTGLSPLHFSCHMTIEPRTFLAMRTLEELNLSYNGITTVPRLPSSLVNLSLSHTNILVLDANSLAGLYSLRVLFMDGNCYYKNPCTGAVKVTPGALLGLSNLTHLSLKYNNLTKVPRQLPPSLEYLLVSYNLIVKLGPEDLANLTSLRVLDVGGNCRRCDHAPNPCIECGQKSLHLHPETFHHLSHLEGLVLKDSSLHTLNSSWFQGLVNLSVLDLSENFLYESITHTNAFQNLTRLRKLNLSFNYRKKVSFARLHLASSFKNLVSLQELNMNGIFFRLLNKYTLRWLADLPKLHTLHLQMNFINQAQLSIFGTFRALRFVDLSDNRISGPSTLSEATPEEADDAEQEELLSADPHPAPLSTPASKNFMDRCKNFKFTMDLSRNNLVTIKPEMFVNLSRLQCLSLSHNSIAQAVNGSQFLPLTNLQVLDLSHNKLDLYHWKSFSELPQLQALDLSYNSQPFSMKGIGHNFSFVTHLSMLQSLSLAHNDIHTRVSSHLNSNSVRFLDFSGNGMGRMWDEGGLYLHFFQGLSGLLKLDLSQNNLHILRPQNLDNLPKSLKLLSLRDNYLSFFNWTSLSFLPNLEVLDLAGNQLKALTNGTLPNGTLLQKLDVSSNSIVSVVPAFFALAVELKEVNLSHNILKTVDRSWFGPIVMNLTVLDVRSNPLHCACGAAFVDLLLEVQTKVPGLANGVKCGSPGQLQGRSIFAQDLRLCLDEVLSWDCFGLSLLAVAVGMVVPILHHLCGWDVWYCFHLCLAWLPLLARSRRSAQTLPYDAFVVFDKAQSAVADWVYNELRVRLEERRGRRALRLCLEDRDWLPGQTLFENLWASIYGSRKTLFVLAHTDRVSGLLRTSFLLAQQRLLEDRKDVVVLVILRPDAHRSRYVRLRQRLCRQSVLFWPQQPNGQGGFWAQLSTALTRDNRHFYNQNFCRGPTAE
Description: CpG-C ISS-induced serum cytokines in 129 mice. The class given is in vivo. To be noted: CpG-C ISS with IRS, serum at 6 hr, listed as IRS. The procedure:
129 mice were either left untreated or treated with CpG-C ISS (50 μg/mice) alone or with IRS (50 μg/mice) and serum was collected 6 hr later. IFN-α and IL-6 was evaluated by ELISA. n=6 mice per group±standard error of the mean.

In the case of “5′-TGCTCCTGGAGGGGTTGT-3′ (DNA, backbone not given here) [SEQ ID NO:42]”, in the series with TLR7, the “inhibition of skin gene expression” value is given as “completed the inhibition”. Besides, the “CpG-ISS-induced activation, serum IFN-α and IL-6” value with TLR9 is on record as “prevented CpG-ISS-induced activation; also recorded: significantly reduced CpG-C ISS-mediated induction of cytokines”.

For the origin of these results see patent publication US8940310B2, “Methods of treatment using TLR7 and/or TLR9 inhibitors” (Dynavax Technologies Corporation, priority 2010, dated 2015).
